According to patent US8916551B2, “Heterocyclic compound and use thereof” (Takeda Pharmaceutical Company Limited, priority 2010, dated 2014):
Counter-ions that a name gives are not always drawn.

Target: T1, AMPA receptor (human GluR1 flip/stargazin expressed in CHO-K1 cells) (Homo sapiens, UniProt P42261)
T1 construct: expressed in transfected cells; host or cells: CHO-K1
Test: AMPA receptor function enhancing activity using calcium influx as index
Format: cell-based
Details: test compound 30 μM with 3 mM glutamic acid, change in fluorescence level in 3 min, 100% = 3 mM glutamic acid + 300 μM cyclothiazide, 0% = 3 mM glutamic acid only
Method in brief: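 CHO-K1 clone stably co-expressing human GluR1 flip and stargazin, loaded with Calcium 4 dye plus probenecid. Compound at 30 μM was added with glutamate (3 mM final) and fluorescence change followed over 3 min. Activity is expressed as % of the 3 mM glutamate plus 300 μM cyclothiazide response, with glutamate alone as 0%.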

T1 sequence (P42261 19-906 isoform P42261-2 limits assumed): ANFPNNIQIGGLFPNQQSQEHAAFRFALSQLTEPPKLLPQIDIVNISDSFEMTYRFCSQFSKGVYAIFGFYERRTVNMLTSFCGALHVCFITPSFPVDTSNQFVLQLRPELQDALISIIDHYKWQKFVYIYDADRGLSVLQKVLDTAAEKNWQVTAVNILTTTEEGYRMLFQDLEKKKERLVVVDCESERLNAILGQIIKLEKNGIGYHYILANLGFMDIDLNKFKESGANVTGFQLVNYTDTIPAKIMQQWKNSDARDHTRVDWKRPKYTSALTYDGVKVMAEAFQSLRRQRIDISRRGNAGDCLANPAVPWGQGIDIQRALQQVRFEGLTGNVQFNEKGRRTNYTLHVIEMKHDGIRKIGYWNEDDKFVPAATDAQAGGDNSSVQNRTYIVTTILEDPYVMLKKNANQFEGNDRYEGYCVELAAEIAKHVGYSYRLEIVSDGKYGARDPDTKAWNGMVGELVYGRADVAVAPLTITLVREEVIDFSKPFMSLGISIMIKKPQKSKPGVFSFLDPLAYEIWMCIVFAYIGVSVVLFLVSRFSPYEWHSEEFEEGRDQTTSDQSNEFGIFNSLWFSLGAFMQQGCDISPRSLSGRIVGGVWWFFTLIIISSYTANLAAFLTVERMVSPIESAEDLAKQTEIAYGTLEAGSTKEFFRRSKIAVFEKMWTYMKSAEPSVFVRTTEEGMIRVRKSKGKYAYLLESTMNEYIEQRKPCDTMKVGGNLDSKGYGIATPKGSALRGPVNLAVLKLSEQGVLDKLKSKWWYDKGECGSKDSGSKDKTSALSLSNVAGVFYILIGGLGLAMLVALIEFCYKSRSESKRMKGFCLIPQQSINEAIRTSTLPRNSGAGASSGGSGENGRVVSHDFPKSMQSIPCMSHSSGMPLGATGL
T1 sequence (Q9Y698 whole entry partner): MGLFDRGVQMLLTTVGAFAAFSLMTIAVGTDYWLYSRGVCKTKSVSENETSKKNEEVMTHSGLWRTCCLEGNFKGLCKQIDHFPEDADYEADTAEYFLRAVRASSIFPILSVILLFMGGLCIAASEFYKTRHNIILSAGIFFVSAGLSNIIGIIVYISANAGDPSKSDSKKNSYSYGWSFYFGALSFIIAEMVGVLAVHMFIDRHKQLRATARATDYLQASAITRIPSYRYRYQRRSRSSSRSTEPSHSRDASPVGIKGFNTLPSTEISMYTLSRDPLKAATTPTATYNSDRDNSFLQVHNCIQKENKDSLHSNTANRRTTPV

First: CCCCn1ccc2cc(C3=CC=CN4CCS(=O)(=O)N=C34)ccc21 [Example 292, 9-(1-butyl-1H-indol-5-yl)-3,4-dihydropyrido[2,1-c][1,2,4]thiadiazine 2,2-dioxide]
Second: CC1(C)Cc2cc(C3=CC=CN4CCS(=O)(=O)N=C34)ccc2C1=O [Example 287, 5-(2,2-dioxido-3,4-dihydropyrido[2,1-c][1,2,4]thiadiazin-9-yl)-2,2-dimethyl-2,3-dihydro-1H-inden-1-one]
The “activity (%)” value of the first is higher: 90% for the first, 73% for the second.

Compared with `COc1cc(Oc2ccc(C3=CC=CN4CCS(=O)(=O)N=C34)cc2)ccc1Cl` [Example 154, 9-[4-(4-chloro-3-methoxyphenoxy)phenyl]-3,4-dihydropyrido[2,1-c][1,2,4]thiadiazine 2,2-dioxide], `O=S1(=O)CCN2C=CC=C(c3ccc(Oc4cccc(C(F)(F)F)c4)cc3)C2=N1` [Example 187, 9-{4-[3-(trifluoromethyl)phenoxy]phenyl}-3,4-dihydropyrido[2,1-c][1,2,4]thiadiazine 2,2-dioxide] is lower in “activity (%)” value: 75% for the first, 72% for the second.

Compared with `CC1CC(c2ccc(Oc3cccc(C(C)(F)F)c3)cc2)C2=NS(=O)(=O)CCN2C1` (racemic) [Example 173, 9-{4-[3-(1,1-difluoroethyl)phenoxy]phenyl}-7-methyl-3,4,6,7,8,9-hexahydropyrido[2,1-c][1,2,4]thiadiazine 2,2-dioxide], `COc1cc(Oc2ccc(C3CC(C)CN4CCS(=O)(=O)N=C34)cc2)ccc1F` (centres unmarked) [Example 164, 9-[4-(4-fluoro-3-methoxyphenoxy)phenyl]-7-methyl-3,4,6,7,8,9-hexahydropyrido[2,1-c][1,2,4]thiadiazine 2,2-dioxide] is higher in “activity (%)” value: 68% for the first, 69% for the second.

Compared with `O=S1(=O)CCN2CCNC(c3ccc(Oc4ccccc4)cc3)C2=N1` (centres unmarked) [Example 211, 9-(4-phenoxyphenyl)-3,4,6,7,8,9-hexahydropyrazino[2,1-c][1,2,4]thiadiazine 2,2-dioxide], `O=S1(=O)CCN2CCC[C@@H](c3ccc(Oc4ccc(Cl)cc4)cc3)C2=N1` [Example 149, (9S)-9-[4-(4-chlorophenoxy)phenyl]-3,4,6,7,8,9-hexahydropyrido[2,1-c][1,2,4]thiadiazine 2,2-dioxide] is higher in “activity (%)” value: 71% for the first, 77% for the second.

First: O=S1(=O)CCN2CCC[C@@H](c3ccc(-c4ccccc4Cl)cc3)C2=N1 [Example 220, (9S)-9-(2′-chlorobiphenyl-4-yl)-3,4,6,7,8,9-hexahydropyrido[2,1-c][1,2,4]thiadiazine 2,2-dioxide]
Second: O=S1(=O)CCN2CCCC(c3ccc(-n4cccn4)cc3)C2=N1 (centres unmarked) [Example 290, 9-[4-(1H-pyrazol-1-yl)phenyl]-3,4,6,7,8,9-hexahydropyrido[2,1-c][1,2,4]thiadiazine 2,2-dioxide]
The “activity (%)” value of the first is higher: 93% for the first, 79% for the second.

For `O=S1(=O)CCN2CCCC(c3ccc(C(F)(F)F)cc3)C2=N1` (centres unmarked) [Example 177, 9-[4-(trifluoromethyl)phenyl]-3,4,6,7,8,9-hexahydropyrido[2,1-c][1,2,4]thiadiazine 2,2-dioxide], the “activity (%)” value was 69%.

Same assay, conditions: test compound 30 μM with glutamic acid final 3 mM, change in fluorescence in 3 min, 100% = 3 mM glutamic acid + 300 μM cyclothiazide, 0% = 3 mM glutamic acid only

First: COc1cccc(C(=O)c2ccc(C3=CC=CN4CCS(=O)(=O)N=C34)cc2)c1 [Example 306, [4-(2,2-dioxido-3,4-dihydropyrido[2,1-c][1,2,4]thiadiazin-9-yl)phenyl](3-methoxyphenyl)methanone]
Second: O=C(c1ccccc1)c1ccc(C2=CC=CN3CCS(=O)(=O)N=C23)cc1 [Example 298, [4-(2,2-dioxido-3,4-dihydropyrido[2,1-c][1,2,4]thiadiazin-9-yl)phenyl](phenyl)methanone]
The “activity (%)” value of the first is lower: 89% for the first, 99% for the second.

Going from `Cc1ccc(-c2ccc(C3CCCN4CCS(=O)(=O)N=C34)cc2)cc1` (centres unmarked) [Example 105, 9-(4′-methylbiphenyl-4-yl)-3,4,6,7,8,9-hexahydropyrido[2,1-c][1,2,4]thiadiazine 2,2-dioxide] to `Cc1cc(C2CCCN3CCS(=O)(=O)N=C23)ccc1-c1ccccc1` (centres unmarked) [Example 103, 9-(2-methylbiphenyl-4-yl)-3,4,6,7,8,9-hexahydropyrido[2,1-c][1,2,4]thiadiazine 2,2-dioxide], the “activity (%)” value falls from 87% to 81%.

`O=S1(=O)CCN2C=CC=C(c3ccc(N4CCOCC4)cc3)C2=N1` [Example 397, 9-(4-morpholin-4-ylphenyl)-3,4-dihydropyrido[2,1-c][1,2,4]thiadiazine 2,2-dioxide] and `CC(=O)c1ccc(C2=CC=CN3CCS(=O)(=O)N=C23)cc1` [Example 400, 1-[4-(2,2-dioxido-3,4-dihydropyrido[2,1-c][1,2,4]thiadiazin-9-yl)phenyl]ethanone] are the same in “activity (%)” value: 83% for the first, 83% for the second.

Compared with `Cc1ccccc1Oc1ccc(C2=CC=CN3CCS(=O)(=O)N=C23)cc1` [Example 115, 9-[4-(2-methylphenoxy)phenyl]-3,4-dihydropyrido[2,1-c][1,2,4]thiadiazine 2,2-dioxide], `O=S1(=O)CCN2C=CC=C(c3ccc(Oc4cccc(Cl)c4)cc3)C2=N1` [Example 85, 9-[4-(3-chlorophenoxy)phenyl]-3,4-dihydropyrido[2,1-c][1,2,4]thiadiazine 2,2-dioxide] is higher in “activity (%)” value: 80% for the first, 84% for the second.

Going from `Cn1ccc2cc(C3=CC=CN4CCS(=O)(=O)N=C34)ccc21` [Example 412, 9-(1-methyl-1H-indol-5-yl)-3,4-dihydropyrido[2,1-c][1,2,4]thiadiazine 2,2-dioxide] to `COc1ccc2cc(C3=CC=CN4CCS(=O)(=O)N=C34)ccc2c1` [Example 126, 9-(6-methoxynaphthalen-2-yl)-3,4-dihydropyrido[2,1-c][1,2,4]thiadiazine 2,2-dioxide], the “activity (%)” value falls from 91% to 72%.

Going from `O=S1(=O)CCN2CCCC(c3ccc(Oc4ccccc4Cl)cc3)C2=N1` (centres unmarked) [Example 433, 9-[4-(2-chlorophenoxy)phenyl]-3,4,6,7,8,9-hexahydropyrido[2,1-c][1,2,4]thiadiazine 2,2-dioxide] to `O=S1(=O)CCN2CCCC(c3ccc(Oc4ccccc4C(F)(F)F)cc3)C2=N1` (centres unmarked) [Example 86, 9-{4-[2-(trifluoromethyl)phenoxy]phenyl}-3,4,6,7,8,9-hexahydropyrido[2,1-c][1,2,4]thiadiazine 2,2-dioxide], the “activity (%)” value rises from 55% to 67%.

Compared with `CCC(C)c1ccc(NC(=O)C2=NC=CN3CCS(=O)(=O)N=C23)cc1` (centres unmarked) [Example 1, N-[4-(1-methylpropyl)phenyl]-3,4-dihydropyrazino[2,1-c][1,2,4]thiadiazine-9-carboxamide 2,2-dioxide], `O=S1(=O)CCN2C=CN=C(c3ccc(-c4ccccc4)c(F)c3)C2=N1` [Example 344, 9-(2-fluorobiphenyl-4-yl)-3,4-dihydropyrazino[2,1-c][1,2,4]thiadiazine 2,2-dioxide] is higher in “activity (%)” value: 66% for the first, 74% for the second.

Compared with `O=S1(=O)CCN2C=C(F)C=C(c3ccc(OC4CCCCC4)cc3)C2=N1` [Example 89, 9-[4-(cyclohexyloxy)phenyl]-7-fluoro-3,4-dihydropyrido[2,1-c][1,2,4]thiadiazine 2,2-dioxide], `O=S1(=O)CCN2C=CC=C(c3ccc(OCc4cccc(F)c4)cc3)C2=N1` [Example 82, 9-{4-[(3-fluorobenzyl)oxy]phenyl}-3,4-dihydropyrido[2,1-c][1,2,4]thiadiazine 2,2-dioxide] is lower in “activity (%)” value: 85% for the first, 65% for the second.

First: O=S1(=O)CCN2CCCC(c3ccc(-c4ccccc4)c(F)c3)C2=N1 (centres unmarked) [Example 97, 9-(2-fluorobiphenyl-4-yl)-3,4,6,7,8,9-hexahydropyrido[2,1-c][1,2,4]thiadiazine 2,2-dioxide]
Second: Cc1cc(C2CCCN3CCS(=O)(=O)N=C23)ccc1-c1ccccc1 (centres unmarked) [Example 102, 9-(2-methylbiphenyl-4-yl)-3,4,6,7,8,9-hexahydropyrido[2,1-c][1,2,4]thiadiazine 2,2-dioxide]
The “activity (%)” value of the first is higher: 86% for the first, 71% for the second.

Compared with `O=S1(=O)CCN2CCCC(COc3ccc4c(c3)CCCC4)C2=N1` (centres unmarked) [Example 303, 9-[(5,6,7,8-tetrahydronaphthalen-2-yloxy)methyl]-3,4,6,7,8,9-hexahydropyrido[2,1-c][1,2,4]thiadiazine 2,2-dioxide], `COc1ccc2cc(C3CCCN4CCS(=O)(=O)N=C34)ccc2c1` (centres unmarked) [Example 129, 9-(6-methoxynaphthalen-2-yl)-3,4,6,7,8,9-hexahydropyrido[2,1-c][1,2,4]thiadiazine 2,2-dioxide] is higher in “activity (%)” value: 82% for the first, 100% for the second.

First: [2H]C1(c2ccc(-c3ccccc3)c(F)c2)NCCN2CCS(=O)(=O)N=C21 (centres unmarked) [Example 348, 9-(2-fluorobiphenyl-4-yl)(9-^2H)-3,4,6,7,8,9-hexahydropyrazino[2,1-c][1,2,4]thiadiazine 2,2-dioxide Hydrochloride]
Second: O=S1(=O)CCN2CCCC(c3ccc(Oc4ccccc4)c(F)c3)C2=N1 (centres unmarked) [Example 347, 9-(3-fluoro-4-phenoxyphenyl)-3,4,6,7,8,9-hexahydropyrido[2,1-c][1,2,4]thiadiazine 2,2-dioxide]
The “activity (%)” value of the first is lower: 64% for the first, 76% for the second.

Going from `COc1cccc(Oc2ccc(C3CCCN4CCS(=O)(=O)N=C34)cc2)c1` (centres unmarked) [Example 98, 9-[4-(3-methoxyphenoxy)phenyl]-3,4,6,7,8,9-hexahydropyrido[2,1-c][1,2,4]thiadiazine 2,2-dioxide] to `O=C(c1ccccc1)c1ccc(C2CCCN3CCS(=O)(=O)N=C23)cc1` (centres unmarked) [Example 304, [4-(2,2-dioxido-3,4,6,7,8,9-hexahydropyrido[2,1-c][1,2,4]thiadiazin-9-yl)phenyl](phenyl)methanone], the “activity (%)” value rises from 71% to 87%.
